Data: ChEMBL document CHEMBL1137094, “Facile incorporation of urea pseudopeptides into protease substrate analogue inhibitors” (Bioorg Med Chem Lett, 2004)
pIC50: −log10 of the molar value.

How the values were obtained:
[1] = biological target: T1, Angiotensin-converting enzyme (Sus scrofa, UniProt Q4ACT8); test: Inhibitory concentration against porcine kidney angiotensin converting enzyme cleavage of hippuryl-histidyl-leucine (HHL)
T1 sequence (Q4ACT8 whole entry): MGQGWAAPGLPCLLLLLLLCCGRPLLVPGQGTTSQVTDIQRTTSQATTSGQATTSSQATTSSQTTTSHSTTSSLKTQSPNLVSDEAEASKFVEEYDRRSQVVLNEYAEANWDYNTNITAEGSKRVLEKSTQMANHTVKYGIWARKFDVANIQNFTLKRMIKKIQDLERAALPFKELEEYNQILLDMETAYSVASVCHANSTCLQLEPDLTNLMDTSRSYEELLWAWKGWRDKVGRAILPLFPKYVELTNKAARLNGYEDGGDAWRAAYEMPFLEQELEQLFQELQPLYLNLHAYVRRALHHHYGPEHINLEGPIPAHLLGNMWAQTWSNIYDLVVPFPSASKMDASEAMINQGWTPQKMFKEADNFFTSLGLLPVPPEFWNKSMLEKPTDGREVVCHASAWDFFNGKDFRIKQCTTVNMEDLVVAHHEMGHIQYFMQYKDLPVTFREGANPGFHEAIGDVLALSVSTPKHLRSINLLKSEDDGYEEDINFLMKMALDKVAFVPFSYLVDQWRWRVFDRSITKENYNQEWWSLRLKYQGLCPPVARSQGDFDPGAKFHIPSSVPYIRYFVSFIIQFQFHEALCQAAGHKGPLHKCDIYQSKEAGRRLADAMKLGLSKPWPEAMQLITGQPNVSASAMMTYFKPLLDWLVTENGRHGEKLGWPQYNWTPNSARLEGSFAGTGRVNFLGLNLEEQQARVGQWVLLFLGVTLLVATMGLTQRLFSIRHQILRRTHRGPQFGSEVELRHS

[2] = biological target: Human immunodeficiency virus type 1 protease (Human immunodeficiency virus 1) (UniProt Q72874); test: Percent inhibition against human immunodeficiency virus protease in fluorescence assay; conditions: concentration not given here
[3] = biological target: Human immunodeficiency virus type 1 protease (Human immunodeficiency virus 1, UniProt Q72874); test: Inhibitory concentration against human immunodeficiency virus protease in fluorescence assay

SMILES: CC(C)C[C@H](NC(=O)[C@H](Cc1ccccc1)NC(=O)NCNC(=O)CNC(=O)[C@@H](N)Cc1ccc(O)cc1)C(=O)O
- pIC50 [1]: 3.06

SMILES: COC(=O)[C@@H](NC(=O)[C@@H](NC(=O)C(Cc1ccccc1)NC(=O)N[C@H](Cc1ccccc1)NC(=O)[C@H](C)NC(=O)[C@H](C)NC(=O)OCc1ccccc1)C(C)C)C(C)C (stereo partly drawn)
- inhibition [2]: 35%

SMILES: COC(=O)[C@@H](NC(=O)[C@@H](NC(=O)[C@H](Cc1ccccc1)NC(=O)N[C@H](Cc1ccccc1)NC(=O)[C@H](C)NC(=O)[C@H](C)N)C(C)C)C(C)C
- pIC50 [3]: 4.49
